# Data from PMC9369442, “Synthetic Peucedanocoumarin IV Prevents α-Synuclein Neurotoxicity in an Animal Model of Parkinson’s Disease” (International Journal of Molecular Sciences, 2022).
# Like-named read-outs stand apart in the source and are kept apart here.
# Columns and labels:
# [1] = Rat pharmacokinetics after intravenous and oral administration; assay type: in vivo; conditions: 10 mg/kg, rats
# Procedure: Figure 3 Pharmacokinetic analysis and tissue distribution of PCiv. (A) Pharmacokinetic analysis of blood PCiv levels at each indicated time point following intravenous or oral administration of PCiv (10 mg/kg) determined by ultra-performance liquid chromatography (n = 4 rats for oral and 5 rats for intravenous administration). (B) Quantification of PCiv levels in each indicated tissue (ng/g tissue weight) determined by ultra-performance liquid chromatography (n = 3 rats, tissues collected 15 min after intravenous PCiv administration (10 mg/kg). PCiv was dissolved in a vehicle (DMSO:PEG400:saline ratio of 5:70:25) for solubilization. The quantified data are expressed as means ± standard deviations.
# In vivo rat pharmacokinetic studies were performed for intravenous and oral administration of PCiv as previously reported. Sprague-Dawley rats (8 weeks old, 260–280 g) were purchased from Orient Bio Inc. (Seongnam, Korea). Rats were maintained with free access to food and water under a 12:12 h light/dark cycle for 1 week. For pharmacokinetic studies, under anesthetic conditions (20 mg/kg tiletamine/zolazepam [Zoletil; Vibrac Laboratories, Carros, France] administered intramuscularly), the femoral vein and artery were surgically cannulated using polyethylene tubing (PE50; Clay Adams, Parsippany, NJ, USA) in fasted rats. Then, PCiv was administered intravenously and orally at a dose of 10 mg/kg (n = 4–5). The drug was dissolved in a vehicle (DMSO:PEG400:saline at a ratio of 5:70:25). Blood samples (approximately 100 μL) were collected at predetermined time points (0, 1, 5 (intravenous administration only), 15, 30, 60, 120, 180, 240, 360, and 480 min) after drug administration. To prevent blood clots and fluid loss, the cannula to the femoral artery was flushed with 20 IU/mL heparinized saline, and the same volume of saline was pushed to the cannula for the femoral vein. The plasma fraction was immediately obtained after centrifugation at 14,000 rpm for 15 min at 4 °C and then stored at −20 °C prior to analysis using the ultra-high-performance liquid chromatography (UHPLC)-diode array detector (DAD) method. Similarly, a tissue distribution study was performed 15 min after the intravenous bolus injection (10 mg/kg), as previously described. Four major tissues, including tissues from the brain, heart, kidneys, and liver, were collected. Based on the wet weights of the tissue samples, a two-fold volume of PBS was added and homogenized. The tissue homogenates were stored at −20 °C before UHPLC-DAD analysis. The UHPLC-DAD system consisted of an Agilent Technologies 1290 Infinity II equipped with a DAD (G7117A), an autosampler (G71678B), a binary pump (G7104A), and a multicolumn thermostat (G7116B). The PCiv level was determined using a CapcellpakTM C18 5 μm column (250 × 1.5 mm, Shiseido Fine Chemical Co., Tokyo, Japan), as previously described. The mobile phase was composed of 0.1% phosphoric acid and acetonitrile and eluted in the gradient mode at a flow rate of 0.2 mL/min. A DAD detector was applied at 321 nm, with an injection volume of 10 μL. The calibration range was 20–10,000 ng/mL with good linearity (R = 0.99783 with 1/× weighting). The tissue concentration levels were calculated as the PCiv amount (ng) per gram of organ weight.
# recombinant α-synuclein = target: T1, recombinant α-synuclein (Homo sapiens, UniProt P37840); experiment: In vitro recombinant α-synuclein aggregation, Western blot; assay type: biochemical; conditions: 100 μM, 37 °C, 3 or 5 days
# T1 construct: made in house; host or cells: Escherichia coli BL21
# Procedure: Figure 2 PCiv prevents α-synuclein aggregation in vitro and in cultured neurons with PFF treatment. (A) Representative Western blots showing the degree of recombinant α-synuclein (αSyn) aggregation in a test tube in the presence or absence of PCiv (100 μM) at the indicated incubation duration (phosphate-buffered saline [PBS], 37 °C for 3 or 5 days). Aggregation of α-synuclein was determined using α-synuclein antibody. (B) Quantification of the relative amount of α-synuclein aggregate in high molecular weight sizes in panel A (n = 3 per group). […] (D) Quantification of pS129-αSyn immunofluorescence signal intensities in MAP2-positive cortical neurons in each experimental group (n = 15 cells from three separate experiments). (E) Cell viability assessment in the indicated experimental groups was monitored by CCK-8 assay (n = 3 per group). The data are expressed as means ± SEMs. * p < 0.05, ** p < 0.01, *** p < 0.001, and **** p < 0.0001, ANOVA test followed by Tukey’s post hoc analysis. […]
# (A) Representative Western blots showing the degree of recombinant α-synuclein (αSyn) aggregation in a test tube in the presence or absence of t-Khellatone, PCiii, and PCiv (100 μM) at 0 and 5 days of incubation (phosphate-buffered saline [PBS], 37 °C for 5 days). Aggregation of α-synuclein was determined using α- synuclein antibody. […]
structure (smiles),measurement,setting,value
"C/C=C(\C)C(=O)O[C@H]1[C@H](OC(C)=O)c2c(ccc3ccc(=O)oc23)OC1(C)C (relative stereo) [PCiv, trans-4′-acetyl-3′-tigloylkhellactone]",half-life,"[1]; Sprague-Dawley, rat, plasma, iv, intravenous, read-out: mean half-life",1.43 h
same,half-life,"[1]; Sprague-Dawley, rat, plasma, po, oral administration, read-out: half-life",~1.62 h
same,bioavailability,"[1]; Sprague-Dawley, rat, plasma, po, oral, read-out: absolute bioavailability",9.96%
same,Vd,"[1]; Sprague-Dawley, rat, plasma, intravenous, read-out: mean steady-state volume of distribution",6.62 L/kg
same,clearance,"[1]; Sprague-Dawley, rat, plasma, intravenous, read-out: mean systemic total clearance",136 mL/min/kg
same,absolute bioavailability,[1]; oral,~10%
same,maximum concentration,[1]; oral,low
same,aggregation of recombinant α-synuclein into high molecular weight species,recombinant α-synuclein,robustly blocked
